Data set [1] concerns SKI-DLCL cells. Nature of the data set: cells. Conditions: 96 h.
Method: (§3) Cell viability is measured by XTT assay in an automated plate reader.
(§4) All the citotoxicity studies were performed by using XTT or MTS.
(§5) Data was obtained after cell incubation for 96 hours and using XTT asay. The results represent means of three different experiments.
Data set [2] deals with SKI-DLCL cells. Conditions: for IC50: 96 hours.
Method: as §3, §4, §5
For data set [3], the system named is K562, CEM and SKI-DLCL cell lines. Kind of data set: Combination of IC20 aplidine with a dose range of additional drug (Table 1). It is filed as cell-based. As to the method:
Drug combination studies were carried out on established cell lines rather than primary cells. We studied three cell lines, viz. K562 as a model for acute myeloid leukemia, CEM representing acute lymphocytic leukemia and SKI-DLCL representing diffuse large cell lymphoma. Combination studies with IC20 and IC 50 dose of aplidine with a dose range of methotrexate, cytosine arabinoside and doxorubicin were tested to determine if aplidine could potentiate the effect of these drugs.

Data set [4] concerns K562 cells. Nature of the data set: XTT/MTS cytotoxicity, single agents and combinations, K562. Conditions: for Viability (% of control): K562, single agent at its IC50 dose. A general note: Formazan colour is commonly taken as a measure of viable cells.
Method: as §3
(§6) Chou-Talalay analysis was used to analyze the drug combinations.
(§7) All the citotoxicity studies were performed by using XTT or MTS. We first determined the IC50 dose of these drugs in SKI-DLCL, CCRF-CEM and K562 cell lines. We investigated drug combinations using IC50(Aplidine):IC50(DrugX) fixed ratio.
In another data set the test system is CCRF-CEM cells. Nature of the data set: XTT/MTS cytotoxicity, single agents and combinations, CCRF-CEM. Conditions: for Viability (% of control): single agent at its IC50 dose.
Data set [5] deals with chronic lymphocytic leukemia (CLL) cells. Nature of the data set: Viability of fresh primary CLL cells cultured with aplidine. It counts as cell-based, human. As to the method:
(§1) Aplidine was tested against various primary cells from patients with hematologic malignancies. The cells used were: • fresh cells obtained from six chronic lymphocytic leukemia patients • primary cell from a patient with preB-ALL (DM4)
(§2) Patient samples were obtained with prior consent and CLL cells were isolated by density gradient centrifugation over histopaque. The media used was RPMI supplemented with 10% autologous serum and L-glutamine. The cultures were incubated with 10 nM aplidine and cell viability was measured days 3, 7,11 and 18 and compared with viability of untreated cells and STI 571 (0.5 mM).

A further data set deals with preB-ALL (DM4) cells. Kind of data set: Viability of primary preB-ALL (DM4) cells cultured with aplidine. It is filed as cell-based, human. The procedure:
as §1, §2

The conditions of data set [6]: solubilised, heat and light stress; cited from earlier work.
The test system of the next data set is ALL-MOLT4 cells. Conditions: cited from earlier work.
The subject of data set [7] is K562 cells.
Method: as §3, §6, §7
For data set [8] the following is noted: at maximum tolerated doses, clinical Phase I; except for mild lymphopenia; cited from earlier work.
Data set [9] can be described thus: Determination of maximum tolerated dose in SCID mice. It is filed as in vivo, C.B.-17 scid/scid (SCID) mice. Conditions: total dose given in five daily doses. The text has this: We have used an in vivo model of human lymphoma in SCID mice for this purpose. Specifically, we have used CCRF-CEMS cells and CB.17 scid/scid mice. We have experience with this model and have evaluated drug treatments using this xenograft (Lacerda J. F. et al. Blood 85 (10): 2675-2679 (1995)).

Data set [10] concerns AML and ALL samples from pediatric patients. Conditions: de novo or relapsed ALL and AML; cited from earlier work.
The next data set has as its system CEM-T leukemic cells. Kind of data set: In vivo antitumor effect in SCID mice xenograft model. Conditions: AraC alone at 50 mg/kg, intra-peritoneally. The procedure:
SCID mice were inoculated subcutaneously in the right flank with 10^7 CEM-T leukemic cells. They were observed twice weekly for tumor formation at the site of inoculation. After establishment of palpable tumor, alidine was injected as single agent and in combination with several doses of AraC to determine the antitumor effect. Mice were randomized to receive alidine alone at doses of 0.75 mg/kg and 1 mg/kg, AraC alone at 50 mg/kg, or combination of Aplidine and AraC for all dose combinations. […] All drugs were administered intra-peritoneally, and tumor size was compared to a control group of mice not receiving any treatment and for combination groups, compared to tumor sizes with single agent treatment.

[11] abbreviates: SKI-DLCL, single agent at its IC50 dose.
The mark [12] stands for this setting: Homo sapiens, K562, No Aplidine.
Where [13] appears, read: Homo sapiens, K562, with IC20 Aplidine (0.5 nM).
The mark [14] stands for this setting: Homo sapiens, K562, 96 h, read-out: IC50 dose, single agent, K562, 96 hours.
Setting [15] is: read-out: IC50 dose, single agent, 96 hours.
[16] abbreviates: read-out: IC50 dose, single agent, SKI-DLCL.

Each structure is given as a SMILES string. Where two headings read alike, the source gives them in different places. Numbered stars: 1 amine (or outer) side, 2 acyl side, 3 side chain; on linkers, the order of the positions; unused ones are H or OH. Bridge positions count the residues as written; N and C are the ends. Square brackets hold non-standard residues; d marks the D form. Peptide text beside a SMILES is read from it. * marks the point of attachment. X1 = CC[C@H](C)[C@@H](N[*:1])[C@@H](O)CC(=O)O[C@H](C(=O)[C@H](C)C(=O)[*:2])C(C)C; NMeY = CN[C@@H](Cc1ccc(O)cc1)C(=O)O; dNMeL = CN[C@H](CC(C)C)C(=O)O; Pyruvoyl = CC(=O)C(=O)*

In general, IC50 refers to the midpoint of a concentration-inhibition curve.

Method for CCRF-CEM cells: as §3, §4, §5

`C[C@H]1C[C@@H]2[C@H]([C@@H](O)C[C@@]3(C)[C@H]2CC[C@]3(O)C(=O)CO)[C@@]2(C)C=CC(=O)C=C12` [Metpred, methylprednisolone]: the IC50 with SKI-DLCL cells [1] (read-out: IC50 dose) turned out to be 160 nM. The “Viability (% of control)” value in the data set on SKI-DLCL cells [2] (setting [11]) was 51 % of control.

Turning to `COc1cccc2c1C(=O)c1c(O)c3c(c(O)c1C2=O)C[C@@](O)(C(=O)CO)C[C@@H]3O[C@H]1C[C@H](N)[C@H](O)[C@H](C)O1` [Dox, doxorubicin], the IC50 in the data set with SKI-DLCL cells [1] (read-out: IC50 dose) is 5 nM; in data set [3] (setting [12]) it was 18 nM; in data set [3] (setting [13]), 1 nM. Moreover, the “Viability (% of control)” value with SKI-DLCL cells [2] (setting [11]) is 50 % of control.

On to `O=C1c2c(O)ccc(O)c2C(=O)c2c(NCCNCCO)ccc(NCCNCCO)c21` [Mitox, mitoxantrone], for which the IC50 worked out at 7.5 nM in the data set with K562 cells [4] (setting [14]), 5 nM with SKI-DLCL cells [1] (read-out: IC50 dose) and 30 nM in the data set with CCRF-CEM cells (setting [15]). Moreover, the figures for the “Viability (% of control)” value with K562 cells [4], with CCRF-CEM cells and in the data set on SKI-DLCL cells [2] (setting [11]) were 50.7 % of control, 56 % of control and 50 % of control, respectively.

`CN(Cc1cnc2nc(N)nc(N)c2n1)c1ccc(C(=O)N[C@@H](CCC(=O)O)C(=O)O)cc1` [MTX, methotrexate]: the figures for the half-maximal inhibitory concentration (IC50) (with CCRF-CEM cells (setting [15]); in data set [3] (setting [12]); in data set [3] (setting [13])) were 10 nM, 5 nM and 0.5 nM, respectively. In addition, the “Viability (% of control)” value with CCRF-CEM cells is recorded as 50 % of control.

Consider `CC[C@H](C)[C@H]1NC(=O)[C@@H](NC(=O)[C@@H](CC(C)C)N(C)C(=O)[C@@H]2CCCN2C(=O)C(C)=O)[C@@H](C)OC(=O)[C@H](Cc2ccc(OC)cc2)N(C)C(=O)[C@@H]2CCCN2C(=O)[C@H](CC(C)C)NC(=O)[C@@H](C)C(=O)[C@H](C(C)C)OC(=O)C[C@@H]1O` [aplidine, Dehydrodidemnin B] (Pyruvoyl-P[dNMeL]T[X1]LP[NMeY](Me); ester 3-C), for which the concentration for half-maximal inhibition (IC50) is 0.5 to 1 nM in the data set on K562 cells [4] (setting [14]); 1 nM with K562 cells [4] (read-out: IC50 dose, single agent, K562, 96 hours, listed as APL); 0.5 to 1 nM in the data set on SKI-DLCL cells [1] (read-out: IC50 dose, single agent, SKI-DLCL, 96 hours); 10 nM in [5] (Homo sapiens, CLL cell, 264 h, primary CLL samples, 11 day exposure); 10 nM in the data set on preB-ALL (DM4) cells (Homo sapiens, 72 h, DM4 line, 3 day exposure); 0.5 nM with CCRF-CEM cells (setting [15]). In the data set on SKI-DLCL cells [2] (setting [16]), the IC50 amounted to 0.5 nM. Moreover, in data set [5] (FIG. 1), the “growth of CLL cells in culture” value is “inhibits growth”. In addition, the “inhibition of preB-ALL cells in culture” value in the data set with preB-ALL (DM4) cells (FIG. 2) is reported as “potent inhibitor”. Besides, in data set [6], the “degradation under stress testing” value was “substantial degradation”. Moreover, the “Viability (% of control)” value in the data set on SKI-DLCL cells [2] and with K562 cells [7] was 50 % of control throughout. For the same molecule, in the data set with ALL-MOLT4 cells, the VEGF secretion result is “block VEGF secretion”. For the same molecule, the myelotoxicity entry in data set [8] is “not myelotoxic”. Further, the “maximum dose that can be tolerated (MTD)” value in data set [9] was 1 mg/kg/week. In addition, the “concentration with in vitro cytotoxic activity” value in [10] is 5 nM.

As for `CC[C@]1(O)C[C@@H]2CN(CCc3c([nH]c4ccccc34)[C@@](C(=O)OC)(c3cc4c(cc3OC)N(C)[C@H]3[C@@](O)(C(=O)OC)[C@H](OC(C)=O)[C@]5(CC)C=CCN6CC[C@]43[C@@H]65)C2)C1` [Vinb, vinblastine], the IC50 in the data set with SKI-DLCL cells [1] (read-out: IC50 dose) was 4 nM. The “Viability (% of control)” value in the data set with SKI-DLCL cells [2] (setting [11]) is reported as 50 % of control.

With `Nc1ccn([C@@H]2O[C@H](CO)[C@@H](O)[C@@H]2O)c(=O)n1` [AraC, cytosine arabinoside], the figures for the “Viability (% of control)” value in the data set with K562 cells [4], with CCRF-CEM cells and in the data set on SKI-DLCL cells [2] (setting [11]) were 50 % of control, 56.4 % of control and 50 % of control, respectively. The IC50 in the data set with K562 cells [4] (read-out: IC50 dose, single agent, K562, 96 hours) was found to be 30 nM; in the data set with CCRF-CEM cells (read-out: IC50 dose of AraC, in combination with IC20 (APL), 96 hours, XTT) it was 0.8 nM; in the data set with CCRF-CEM cells (setting [15]) it was 10 nM; in the data set with SKI-DLCL cells [2] (read-out: IC50 dose of AraC, SKI-DLCL, in combination with IC20 (APL), XTT), 1.6 nM; in the data set with SKI-DLCL cells [2] (setting [16]), 30 nM; in data set [3] (No Aplidine) it was 30 nM. Further, the IC50 in data set [3] (with IC20 Aplidine (0.5 nM)) stood at 6 nM. In addition, in the data set with CEM-T leukemic cells, the “in vivo antitumor effect (tumor growth)” value was “tumor growth was inhibited but no tumor regression occurred”.

(Values after US7576188B2, “Antitumoral treatments” (Pharma Mar, S.A.U., priority 2004, dated 2009).)
